# Data: US20240009220A1, “METHODS FOR TREATMENT OF VIRAL INFECTIONS” (priority 2022, published 2024)
# Like-named read-outs stand apart in the source and are kept apart here.
# What was measured:
# [1] = female, New Zealand White, rabbit, in vivo, po, 125 mg/kg/day
# Experimental: (§1) The effects of compound 16 on pregnant New Zealand White (NZW) rabbits and the development of the embryo consequent to exposure of the female from implantation to closure of the hard palate (Gestation Days [GD] 7 through 19) was evaluated. Compound 16 was administered to 4 groups of pregnant rabbits (20/group) at doses of 0 (0.5% methylcellulose in deionized water), 125, 250, and 500 mg/kg/day once daily via oral gavage during organogenesis (GD 7 to 19). Assessment of toxicity was based on mortality, clinical observations, body weights, food consumption, and necropsy and cesarean section findings. In addition, blood samples were collected for toxicokinetic evaluation of compound 16 and compound 1 from similarly dosed animals (4/group).
# SARS-CoV-2 Fluc = assay type: cell-based
# [2] = female, Wistar Han, rat, in vivo, po, 250 mg/kg/day
# Experimental: (§2) The effects of compound 16 on pregnant Wistar Han rats and development of the embryo consequent to exposure of the female from implantation to closure of the hard palate were evaluated. Compound 16 was administered to 4 groups of presumed pregnant rats (8/group) at doses of 0 (vehicle), 125, 250, and 500 mg/kg/day via once daily gavage administration during organogenesis (gestation days [GD] 6 to 17) at a dose volume of 5 mL/kg. Additional pregnant rats were similarly dosed for toxicokinetic assessment of compound 16 and compound 1. Assessment of toxicity to the pregnant rats was based on mortality, clinical observations, body weights and food consumption. Rats were necropsied and cesarean sectioned on GD 21. An examination of the external features of the carcass; external body orifices; abdominal, thoracic, pelvic, and oral cavities; organs; and tissues was performed. Any macroscopic abnormalities were noted. Pregnancy status was determined. The uterus from each pregnant animal was excised, weighed, and examined for the number and placement of live and dead fetuses, the number of early or late resorptions, and any abnormalities. The right and left ovaries from each pregnant female were examined for the number of corpora lutea. Each fetus was sexed, weighed, and examined for external abnormalities. […]
# [3] = Oral gavage embryo-fetal development study with compound 16 in rabbits; details: female, New Zealand White, rabbit, in vivo, po
# Experimental: as §1
# [4] = tested on: pregnant New Zealand White (NZW) rabbits; assay: as above
# Experimental: as §1
# pregnant Wistar Han rats [5] = assay: Enhanced dose range-finding embryo-fetal development study of compound 16 by oral gavage in Wistar Han rats; details: rat, in vivo
# Experimental: as §2
# [6] = as above; details: female, Wistar Han, rat, in vivo, po
# Experimental: as §2
# pregnant Wistar Han rats [7] = assay: Embryo-fetal development study of compound 16 by oral gavage in Wistar Han rats; assay type: in vivo; details: 125 and 250 mg/kg/day, GD 6 to 17, rats
# Experimental: (§3) The potential of compound 16 to induce developmental toxicity after maternal exposure during the critical period of organogenesis (GD 6 through 17) were evaluated, maternal toxicity at the exposure levels tested was characterized, and a no observed-adverse-effect level (NOAEL) for maternal toxicity and developmental toxicity following oral administration in Wistar Han rats was determined.
# (§4) Rats were necropsied and cesarean sectioned on GD 21. […] Any macroscopic abnormalities were noted. Pregnancy status was determined. […] The thoracic and abdominal cavities were opened and dissected using a technique described by Stuckhardt and Poppe (1984). Fetal kidneys were examined and graded for renal papillae development (Woo and Hoar, 1972). The heads from these fetuses were removed and placed in Harrison's fixative for soft tissue examination using the Wilson sectioning technique (Wilson, 1965). The remaining fetuses (approximately one-half from each litter), were eviscerated, fixed in 100% ethyl alcohol, macerated in potassium hydroxide and stained with Alizarin Red S by a method similar to that described by Dawson (1926) for subsequent examination of skeletons.
# [8] = as above; assay type: in vivo; details: female, rat, in vivo; pregnant Wistar Han rats, once daily oral gavage GD 6 to 17, definitive study; read-out: no-observed-adverse-effect level (NOAEL) for maternal toxicity and embryofetal development
# Experimental: as §3, §4
Compound,compound 1 AUC0-24h exposure [1],"Bliss independence consensus score, Average of Replicates (SARS-CoV-2 Fluc)",drug combination effect by Bliss score (SARS-CoV-2 Fluc),compound 1 AUC0-24h exposure [2],NOAEL [3],skeletal malformations ([4]; rabbit fetuses),"fetal visceral findings ([4]; rabbit, in vivo, 250 mg/kg/day)",tolerability of dose level (pregnant Wistar Han rats [5]),NOAEL [6],effects on intrauterine growth or survival (pregnant Wistar Han rats [7]),"external, visceral or skeletal malformations or variations (pregnant Wistar Han rats [7])",NOAEL [8]
N#C[C@@]1(c2ccc3c(N)ncnn23)O[C@H](CO)[C@@H](O)[C@H]1O [Compound 1],"64,100 ng*h/mL",8.00±1.09,Additive,"183,000 ng*h/mL",,,,,,,,
CC(C)C(=O)OC[C@H]1O[C@@](C#N)(c2ccc3c(N)ncnn23)[C@H](O)[C@@H]1O [Compound 16],,6.15±2.16,Additive,,125 mg/kg/day,No compound 16-related skeletal malformations,"increased rates of ventricular septum defects, large or small heart ventricles, dilated or malpositioned aortas, retroesophageal aortic arches, retroesophageal subclavian arteries, abnormal lobulation of the liver",not tolerated,250 mg/kg/day,No compound 16-related effects,"No compound 16-related external, visceral or skeletal malformations or variations",250 mg/kg/day
"CC(C)C(=O)OC[C@H]1O[C@@H](n2ccc(NO)nc2=O)[C@H](O)[C@@H]1O [molnupiravir, Molnupiravir, reference compound]",,−2.47,Additive,,,,,,,,,
"CC(C)(C)[C@H](NC(=O)C(F)(F)F)C(=O)N1C[C@H]2[C@@H]([C@H]1C(=O)N[C@H](C#N)C[C@@H]1CCNC1=O)C2(C)C [nirmatrelvir, reference compound]",,0.13±1.53,Additive,,,,,,,,,
